System: TNF-α and IL-1 secretion
Assay: investigated assays, not specified which (TNF-α/IL-1 secretion in human PBMC and in mouse peritoneal macrophages, LPS-induced TNF-α/IL-1 secretion in mice, writhing assay, LPS-induced shock in mice)
Settings: assays not named; active = IC-50 20 μM or lower (PBMC), 10 μM or lower (macrophages), 30% or more inhibition of TNF-α at 10 mg/kg, analgetic activity as acetylsalicylic acid or better, survival 40% or more at 30 mg/kg
Method: Human peripheral blood mononuclear cells (PBMC) were prepared from heparinized whole blood after separating PBMC on Ficoll-Paque™Plus (Amersham-Pharmacia). To determine the TNF-α level, 3.5-5×10^4 cells were cultivated in a total volume of 200 μl for 18 to 24 hours on microtitre plates with a flat bottom (96 wells, Falcon) in RPMI 1640 medium, into which there were added 10% FBS (Fetal Bovine Serum, Biowhittaker) previously inactivated at 54° C./30 min, 100 units/ml of penicillin, […] of streptomycin and 20 mM HEPES (GIBCO). The cells were incubated at 37° C. in an atmosphere with 5% CO2 and 90% humidity. […] The IL-1 level was determined in an assay under the same conditions and with the same number of cells and the same concentration of the stimulus by ELISA procedure (R&D Systems). The percentage of inhibition of TNF-α or IL-1 production was calculated by the equation: % inhibition=[1−(TS−NC)/(PC−NC)]*100. […]
In order to obtain peritoneal macrophages, Balb/C mouse strain males, age 8 to 12 weeks, were injected i.p. with 300 μg of zymosan (SIGMA) dissolved in a phosphate buffer (PBS) in a total volume of 0.1 ml/mouse. […] The TNF-α level in the cell supernatant was determined by ELISA procedure (R&D Systems, Biosource). The IL-1 level was determined in an assay identical to the assay for TNF-α by ELISA procedure (R&D Systems). […]

## Dimethyl-[3-(11-methoxy-8-oxa-1-thia-benzo[e]naphtho[3,2-h]azulene-2-ylmethoxy)-propyl]-amine [Example 7]
  activity in at least two investigated assays: show activity in at least two investigated assays

Reference: patent US7262309B2, “1- or 3-thia-benzonaphthoazulenes as inhibitors of tumor necrosis factor production and intermediates for the preparation thereof” (GlaxoSmith Kline Istrazivocki Centar Zagreb, D.O.O., priority 2002, dated 2007)
